In patent US20230133114A1, “COMPOSITIONS AND METHODS CONTAINING REDUCED NICOTINAMIDE RIBOSIDE FOR PREVENTION AND TREATMENT OF VIRAL AND BACTERIAL INFECTIONS” (SOCIETE DES PRODUITS NESTLE S.A., priority 2020, published 2023):
Structures can show the parent of a compound that is named as a salt. Blank lines part the entries; values can stand above or below the compound they belong to.

Columns and labels:
[1] = test system: Splenocytes; assay: Intracellular NAD+ in splenocytes; assay type: cell-based; settings: splenocytes from 1 year old mice, 2 hours
Description: Then, 2 hours later, intracellular NAD+ levels were measured. * indicates p<0.05 vs. Control (0 mM) group. […] Then, 2 hours later, intracellular NAD+ levels were measured as described above.

[2] = Stability in water; assay type: physicochemical; settings: pH=7, room temperature, 48 h
Description: (§1) NR degradation to NAM has been proposed as a limitation for its pharmacological efficacy. To evaluate whether NRH was also susceptible to degradation to NAM, we spiked NRH or NR in isolated mouse plasma. […] We also tested the stability of NRH in other matrixes. […] Finally, we also certified NRH stability in water (pH=7, at room temperature) for 48 h.

[3] = test system: RAW 264.7 macrophages; assay: Intracellular NAD+ in cultured RAW 264.7 macrophages; assay type: cell-based; settings: 1 hour
Description: RAW 264.7 macrophages were treated with dihydronicotinamide riboside (NRH) at the concentrations indicated. […] Control (0 mM) group. RAW 264.7 macrophages were treated with dihydronicotinamide riboside (NRH) at the concentrations indicated.

[4] = Circulating NRH, NR and NAM after IP injection in mice; assay type: in vivo
Description: Levels of NRH and other NAD-related metabolites in biological samples were obtained by using a cold liquid-liquid extraction using a mixture of methanol:water:chloroform in 5:3:5 (v/v), from which the polar phase was recovered for hydrophilic interaction ultra-high performance liquid chromatography mass spectrometry (UHPLC-MS) analysis. The UHPLC consisted of a binary pump, a cooled autosampler, and a column oven (DIONEX Ultimate 3000 UHPLC+ Focused, Thermo Scientific), connected to a triple quadrupole spectrometer (TSQ Vantage, Thermo Scientific) equipped with a heated electrospray ionisation (H-ESI) source. Of each sample, 2 µL were injected into the analytical column (2.1 mm × 150 mm, 5 µm pore size, 200 Å HILICON iHILIC®-Fusion(P)), guarded by a pre-column (2.1 mm × 20 mm, 200 Å HILICON iHILIC®-Fusion(P) Guard Kit) operating at 35° C. The mobile phase (10 mM ammonium acetate at pH 9, A, and acetonitrile, B) was pumped at 0.25 mL/min flow rate over a linear gradient of decreasing organic solvent (0.5-16 min, 90-25% B), followed by re-equilibration for a total run time of 30 min. The MS operated in positive mode at 3500 V with multiple reaction monitoring (MRM). The software Xcalibur v4.1.31.9 (Thermo Scientific) was used for instrument control, data acquisition and processing. Retention time and mass detection was confirmed by authentic standards. […]

[5] = test system: Mouse bone marrow derived macrophages; assay: Intracellular NAD+ in cultured bone marrow derived macrophages; assay type: cell-based; settings: 1 or 2 hours
Description: Mouse bone marrow derived macrophages were treated with dihydronicotinamide riboside (NRH) at the concentrations indicated, using PBS as control. […] Control group. Mouse bone marrow derived macrophages were treated with dihydronicotinamide riboside (NRH) at the concentrations indicated, using PBS as control.

[6] = test system: NAD+ levels; assay: Hepatic NAD+ levels after oral administration in mice; assay type: in vivo; settings: oral administration (FIG. 2: 500 mg/kg, 1 hour)
Description: 8 week-old C57BI/6NTac mice were orally gavaged with either saline (as vehicle), NR (500 mg/kg) or NRH (500 mg/kg). After 1 hour, liver, skeletal muscle and kidney NAD^+ levels were evaluated. All results are expressed as mean +/-SEM of n=5 mice per group. * indicates statistical difference at p<0.05 vs. vs. saline-treated mice. # indicates statistical difference at p<0.05 vs. NR treated mice.
(§2) Levels of NRH and other NAD-related metabolites in biological samples were obtained by using a cold liquid-liquid extraction using a mixture of methanol:water:chloroform in 5:3:5 (v/v), from which the polar phase was recovered for hydrophilic interaction ultra-high performance liquid chromatography mass spectrometry (UHPLC-MS) analysis. The UHPLC consisted of a binary pump, a cooled autosampler, and a column oven (DIONEX Ultimate 3000 UHPLC+ Focused, Thermo Scientific), connected to a triple quadrupole spectrometer (TSQ Vantage, Thermo Scientific) equipped with a heated electrospray ionisation (H-ESI) source. Of each sample, 2 µL were injected into the analytical column (2.1 mm × 150 mm, 5 µm pore size, 200 Å HILICON iHILIC®-Fusion(P)), guarded by a pre-column (2.1 mm × 20 mm, 200 Å HILICON iHILIC®-Fusion(P) Guard Kit) operating at 35° C. […]

[7] = NRH levels in liver, kidney and muscle after oral gavage; assay type: in vivo; settings: mice, oral gavage 250 mg/kg, 2 hours
Description: (§3) 8 week-old C57BI/6NTac mice were orally gavaged with either saline (as vehicle), and NRH (250 mg/kg). After 2 hours, liver, skeletal muscle and kidney NRH levels were evaluated. All results are expressed as mean +/-SEM of n=4 mice per group, as areas under the signal by LC-MS analysis, corrected by total protein amount of tissue.
(§4) Levels of NRH and other NAD-related metabolites in biological samples were obtained by using a cold liquid-liquid extraction using a mixture of methanol:water:chloroform in 5:3:5 (v/v), from which the polar phase was recovered for hydrophilic interaction ultra-high performance liquid chromatography mass spectrometry (UHPLC-MS) analysis. The UHPLC consisted of a binary pump, a cooled autosampler, and a column oven (DIONEX Ultimate 3000 UHPLC+ Focused, Thermo Scientific), connected to a triple quadrupole spectrometer (TSQ Vantage, Thermo Scientific) equipped with a heated electrospray ionisation (H-ESI) source. Of each sample, 2 µL were injected into the analytical column (2.1 mm × 150 mm, 5 µm pore size, 200 Å HILICON iHILIC®-Fusion(P)), guarded by a pre-column (2.1 mm × 20 mm, 200 Å HILICON iHILIC®-Fusion(P) Guard Kit) operating at 35° C. The mobile phase (10 mM ammonium acetate at pH 9, A, and acetonitrile, B) was pumped at 0.25 mL/min flow rate over a linear gradient of decreasing organic solvent (0.5-16 min, 90-25% B), followed by re-equilibration for a total run time of 30 min. The MS operated in positive mode at 3500 V with multiple reaction monitoring (MRM). The software Xcalibur v4.1.31.9 (Thermo Scientific) was used for instrument control, data acquisition and processing. Retention time and mass detection was confirmed by authentic standards.

[8] = Plasma NRH, NR and NAM after oral administration in mice; assay type: in vivo
Description: as §4
Oral administration of NRH led to very similar results to those observed after IP administration. […] NRH was detectable in plasma 1 h after oral administration. In contrast, NR levels were undetectable at 1 h after NR administration.

[9] = Stability of NRH or NR spiked in isolated mouse plasma; assay type: in vitro ADME; settings: for levels of spiked compound in plasma: isolated mouse plasma, 2 h of incubation
Description: as §4, §1

[10] = test system: Salmonella enterica serovar Typhimurium; assay: Anti-bacterial response of monocyte-derived macrophages against Salmonella (CFU counts); assay type: cell-based; settings: 0.01 mM for 42 h prior to infection, MOI 10, 1 h; gentamicin 2 h
Description: (§5) Monocyte-derived macrophages were treated with 0.01 mM NRH for 42 h prior to infection with Salmonella enterica serovar Typhimurium for 1 h using a multiplicity of infection of 10. Following infection, macrophages were treated with gentamicin for 2 h before cell lysis. Values show absolute colony forming unit (CFU) counts with each dot representing one donor and each line representing paired samples. Graphs show pooled data of 2 independent experiments with 2-3 donors/experiment.
as §5, with “donors/experiment. (FIG. 5).” for “donors/experiment.”

[11] = test system: NAD+ levels; assay: Tissue NAD+ levels after IP injection in mice; assay type: in vivo; settings: IP 500 mg/kg, after 1 h
Description: as §4
The above results prompted us to test whether NRH could act as an effective NAD+ precursor in vivo. For this, we first intraperitoneally (IP) injected mice with either NR or NRH (500 mg/kg). […] Importantly, NRH was detectable in circulation after IP injection.

[12] = Stability in FBS supplemented media; assay type: in vitro ADME
Description: as §1

[13] = NRH levels in lung after oral gavage; assay type: in vivo; settings: mice, oral gavage of stable isotope-labelled NRH 250 mg/kg, 2 hours
Description: as §3, with “and an stable isotope-labelled” for “and”, “hours,” for “hours, liver, skeletal muscle and kidney”, “levels in the lung” for “levels”, “+/-SE” for “+/-SEM”
as §2, with “source.” for “source. Of each sample, 2 µL were injected into the analytical column (2.1 mm × 150 mm, 5 µm pore size, 200 Å HILICON iHILIC®-Fusion(P)), guarded by a pre-column (2.1 mm × 20 mm, 200 Å HILICON iHILIC®-Fusion(P) Guard Kit) operating at 35° C.”
8 week-old C57BI/6NTac mice were orally gavaged with either saline (as vehicle), and an stable isotope-labelled NRH (250 mg/kg). After 2 hours, NRH levels in the lung were evaluated. All results are expressed as mean +/-SE of n=4 mice per group, as areas under the signal by LC-MS analysis, corrected by total protein amount of tissue (FIG. 4).

stability in water [2]: stability | NRH in kidney [7]: found intact, in high levels | NRH in liver [7]: found intact, in high levels | NRH in muscle [7]: found intact, in high levels | NRH in plasma ([8]; mice, 1 h after oral administration): detectable | NRH concentration in plasma ([8]; mice, after oral gavage): 11.16 ± 1.74 µM | levels of spiked compound in plasma [9]: remained stable | NR production on incubation in isolated plasma ([9]; isolated plasma): did not lead to NR production | degradation to NAM in FBS supplemented media [12]: did not degrade to NAM | NRH in lung [13]: efficient biodistribution in the lung
SMILES: NC(=O)C1=CN([C@@H]2O[C@H](CO)[C@@H](O)[C@H]2O)C=CC1 [NRH, dihydronicotinamide riboside]
intracellular NAD+ levels [1]: increases NAD+ | intracellular NAD+ levels [3]: increases NAD+ | NR in circulation ([4]; after IP treatment, compared with NR injection): much higher levels than those detected after NR injection itself | intracellular NAD+ levels [5]: increases NAD+ | effect on hepatic NAD+ levels [6]: more potent effect on hepatic NAD+ levels than NR | anti-bacterial macrophage response against salmonella [10]: able to augment anti-bacterial macrophage response | NAD+ levels in kidney [11]: increased | NAD+ levels in liver [11]: increased | NAD+ levels in muscle [11]: increased

NAM levels in circulation ([4]; IP 500 mg/kg): highly increased | circulating NAM relative to that after NRH treatment ([8]; C57BL/6NTac, mouse, in vivo, po, 1 h): ~ 4 fold | circulating NAM ([8]; mouse, in vivo, po): large increases | levels of spiked compound in plasma [9]: decayed | degradation to NAM in FBS supplemented media [12]: occurs
SMILES: NC(=O)c1ccc[n+]([C@@H]2O[C@H](CO)[C@@H](O)[C@H]2O)c1 [NR, 1-b-D-ribofuranosyl-3-pyridinecarboxamide salt, reference compound]
NAD+ levels in kidney [11]: increased | NAD+ levels in liver [11]: increased | NAD+ levels in muscle [11]: increased
